Measurements: patent publication US9855243B2, “Topical anti-inflammatory pharmaceutical composition with zileuton cream formulation” (Qurient Co., Ltd., priority 2013, dated 2018)
Several values for one entry are separate records, joined by “and”; a condition that tells them apart may be missing. Equal entries are not always repeated.

What was measured:
[1] = tested on: liver functions of the patient; conditions: oral administration; cited from earlier work
[2] = Screening of excipient suitability: zileuton with excipient, stability at 50° C.; format: physicochemical
Protocol: Suitability of components generally used in cream formulation with respect to zieluton was screened, prior to preparing a zieluton cream formulation. […] That is, the stability of excipient at 50° C. was tested.

[3] = tested on: atopic dermatitis symptoms; conditions: clinical trials; oral administration; cited from earlier work
[4] = Solubility of zileuton in solvents at 25° C.(RT); format: physicochemical
Description: Furthermore, the suitability of other various solvents for solubilizing zileuton was screened. […] Especially, hydrophilics solvents such as alcohols may be preferably used.

[5] = tested on: Delayed Type Hypersensitivity Reaction in mouse induced by DNFB; test: Mouse atopic dermatitis model, DNFB-induced ear inflammation; format: in vivo, BALB/c mouse; conditions: ear tissues after day 5 stimulation
Protocol: According to an embodiment of the present invention, the medical effect of the cream type topical pharmaceutical composition has been verified in a Delayed Type Hypersensitivity Reaction in mouse induced by DNFB. The test article was applied to a mouse's skin 3 times a day, and then the medical effect was measured. Furthermore, an excess amount of the zileuton was injected using a non-optimized test vehicle, acetone.
For this purpose, BALB/c mice were divided into […], each consisting of 10 mice. The groups were divided into a vehicle (acetone), positive control group (dexamethasone 0.05 mg/ear; Dex), and zileuton groups ([…]). And the zileuton groups were divided into cases where acetone (1 mg/ear) and the cream formulation of […] (0.2 mg/ear and 0.02 mg/ear) were used, respectively.
Then, on day 5, 20 μl of 0.3% DNFB was applied once again to cause inflammation in the ears. Then, dexamethasone and zileuton dissolved in acetone vehicle were applied to the ears at 1 hour, 6 hours, and 23 hours after the stimulation on day 5. Thicknesses of the ears were measured at 24 hours after the stimulation on day 5, and then ear tissues were taken for histopathological observation.

[6] = tested on: inflammation reaction of asthma; conditions: clinical trials; oral drug; cited from earlier work
[7] = Zileuton API alone, 2 weeks, 50° C.
[8] = Zileuton API alone, 4 weeks, 50° C.
[9] = with Carbomer 1:1, 2 weeks, 50° C.
[10] = with Carbomer 1:1, 4 weeks, 50° C.
[11] = with Ceteareth-20 1:1, 2 weeks, 50° C.
[12] = with Ceteareth-20 1:1, 4 weeks, 50° C.
[13] = with Hypromellose (HPMC) 1:1, 2 weeks, 50° C.
[14] = with Hypromellose (HPMC) 1:1, 4 weeks, 50° C.
[15] = with Hypromellose (HPMC) 1:1, Day 0
[16] = with Phospholipon 90H 1:1, 2 weeks, 50° C.
[17] = with Phospholipon 90H 1:1, 4 weeks, 50° C.
[18] = with Phospholipon 90H 1:1, Day 0
[19] = with Stearyl alcohol 1:1, 2 weeks, 50° C.
[20] = with Stearyl alcohol 1:1, 4 weeks, 50° C.
[21] = with Stearyl alcohol 1:1, Day 0
[22] = with Titanium dioxide 1:1, 2 weeks, 50° C.
[23] = with Titanium dioxide 1:1, 4 weeks, 50° C.
[24] = with Titanium dioxide 1:1, Day 0
[25] = with White wax 1:1, 2 weeks, 50° C.
[26] = with White wax 1:1, 4 weeks, 50° C.

CC(c1cc2ccccc2s1)N(O)C(N)=O (racemic) [Zileuton, (±)-1-(1-(benzo [b]thiophen-2-yl)ethyl)-1-hydroxyurea]
Hepatotoxicity [1]: significant hepatotoxicity
Appearance [2, 7]: White
TRS. % [2, 7]: 3.311% and 3.006%
Appearance [2, 8]: White
TRS. % [2, 8]: 2.711% and 2.493%
TRS. % ([2]; Zileuton API alone, Day 0): 2.378%
Appearance [2, 9]: White
TRS. % [2, 9]: 2.385% and 3.067%
Appearance [2, 10]: White
TRS. % [2, 10]: 2.330% and 2.403%
Appearance ([2]; with Carbomer 1:1, Day 0): White
TRS. % ([2]; with Carbomer 1:1, Day 0): 3.326%
Appearance [2, 11]: White
TRS. % [2, 11]: 3.445% and 3.365%
Appearance [2, 12]: White
TRS. % [2, 12]: 3.632% and 3.549%
Appearance ([2]; with Ceteareth-20 1:1, Day 0): White
TRS. % ([2]; with Ceteareth-20 1:1, Day 0): 2.394%
Appearance [2, 13]: White
TRS. % [2, 13]: 2.864% and 2.949%
Appearance [2, 14]: White
TRS. % [2, 14]: 2.555% and 2.580%
Appearance [2, 15]: White
TRS. % [2, 15]: 2.610%
Appearance [2, 16]: White
TRS. % [2, 16]: 2.820% and 2.846%
Appearance [2, 17]: White
TRS. % [2, 17]: 2.557% and 2.429%
Appearance [2, 18]: White
TRS. % [2, 18]: 2.400%
Appearance [2, 19]: White
TRS. % [2, 19]: 2.935% and 2.796%
Appearance [2, 20]: White
TRS. % [2, 20]: 2.512% and 2.567%
Appearance [2, 21]: White
TRS. % [2, 21]: 3.311%
Appearance [2, 22]: White
TRS. % [2, 22]: 2.803% and 2.839%
Appearance [2, 23]: White
TRS. % [2, 23]: 2.507% and 2.504%
Appearance [2, 24]: White
TRS. % [2, 24]: 2.344%
Appearance [2, 25]: White
TRS. % [2, 25]: 2.863% and 2.843%
Appearance [2, 26]: White
TRS. % [2, 26]: 2.459% and 2.381%
Appearance ([2]; with White wax 1:1, Day 0): White
TRS. % ([2]; with White wax 1:1, Day 0): 2.372%
Effect on atopic dermatitis symptoms [3]: alleviates atopic dermatitis symptoms
Zileuton Solubility at RT (% w/w) ([4]; in Caprylocaproyl Polyoxyl-8 Glycerides/Labrasol): 10.81-11.42 % w/w
Zileuton Solubility at RT (% w/w) ([4]; in Castor Oil): <0.16 % w/w
Zileuton Solubility at RT (% w/w) ([4]; in Cyclomethicone): <0.06 % w/w
Zileuton Solubility at RT (% w/w) ([4]; in Diethylene Glycol Monoethyl Ether/Transcutol P): 17.11-17.62 % w/w
Zileuton Solubility at RT (% w/w) ([4]; in Dimethicone): <0.06 % w/w
Zileuton Solubility at RT (% w/w) ([4]; in Isopropyl Myristate): <0.20 % w/w
Zileuton Solubility at RT (% w/w) ([4]; in Light Mineral Oil): <0.04 % w/w
Zileuton Solubility at RT (% w/w) ([4]; in Medium Chain Triglycerides): <0.21 % w/w
Zileuton Solubility at RT (% w/w) ([4]; in Olive Oil): <0.07 % w/w
Zileuton Solubility at RT (% w/w) ([4]; in Polyglyceryl-6 Dioleate): <0.06 % w/w
Zileuton Solubility at RT (% w/w) ([4]; in Polyglyceryl-10 Mono/Dioleate/Caprol PGE-860): <0.16 % w/w
Zileuton Solubility at RT (% w/w) ([4]; in Polyoxyethylene (20) Sorbitan Monolaurate/Tween 20): 8.42-9.24 % w/w
Zileuton Solubility at RT (% w/w) ([4]; in Polyoxyl 40 Hydrogenated Castor Oil/Kolliphor RH40): <0.37 % w/w
Zileuton Solubility at RT (% w/w) ([4]; in Propylene Glycol Dicaprylocaprate): <0.20 % w/w
Zileuton Solubility at RT (% w/w) ([4]; in Safflower Oil): <0.07 % w/w
Zileuton Solubility at RT (% w/w) ([4]; in Squalane): <0.04 % w/w
Zileuton Solubility at RT (% w/w) ([4]; in Triacetin): 0.50-0.72 % w/w
Histopathological observation, anti-inflammation function [5]: excellent anti-inflammation function
Anti-inflammatory effect in asthma [6]: effective anti-inflammatory pharmaceutical effect
